From patent US4372877A, “Di(acylperoxy)-1,4-cyclohexane dimethanol-bis-carbonates” (priority 1981, dated 1983)

Key:
[1] = Ten-hour half-life temperature (0.1 M in benzene); type: physicochemical
Description: Table I provides the ten-hour half-life of the compounds of the instant invention synthesized in Examples 1-3.
Peroxide (0.1 M in benzene)

[2] = Storage stability at 40 °C; type: physicochemical; set-up: A.O.: unit not given here
Protocol: APCD from Example 1 is selected as representative and was tested over a period of 89 days at 40° C. Representative peroxy carbonate and dicarbonates of the prior art are also included for comparison.
Storage Stability at 40° C.

[3] = Vinyl chloride suspension polymerization (% conversion)
Protocol: As mentioned, the instant bis-carbonates are useful for the initiation of monomers having polymerizable ethylenic or vinyl unsaturation, such as ethylene, styrene, methyl methacrylate and vinyl chloride and copolymers thereof. The data was generated with suspension polymerization performed in 12 ounce pop bottles using uninhibited monomer. Duplicate bottles were analyzed at each time interval for which data is listed. Bottles were frozen before venting off of excess monomer. Mixing speed of the pop bottles was 42 rpm. The water to vinyl chloride monomer ratio was 2.50. Each pop bottle contained 0.35 gms Dow Methocel 90 HG, 100 cps suspension agent per 100 gms vinyl chloride monomer.

[4] = Hot Block Gel Tests With Polyester Resin; conditions: block 180 °F, 1% wt peroxide (100% purity basis)
Description: As mentioned above, the new molecules can be used for curing of polyester resins and this utility is illustrated in Tables V and VI below. Typical prior art peroxy dicarbonates and carbonates of the prior art are included for comparison.
Hot Block Gel Tests With Polyester Resin
Resin: MR 941 (U.S.S. Chemical - orthophthalic)
Concentrations of peroxide adjusted to 100% purity basis, 1% wt

[5] = disclosed in prior art U.S. patents; cited from earlier work
[6] = 55 °C, 5.5 Hrs., 2.01 × 10^-4 moles/100g VCM (APCD 0.070, LPCD 0.126, BPCD 0.095 % wt)
[7] = 55 °C, 5.5 Hrs., 2.30 × 10^-4 moles/100g VCM (APCD 0.080, LPCD 0.145, BPCD 0.109 % wt)
[8] = 60 °C, 5.0 Hrs., 1.15 × 10^-4 moles/100g VCM (APCD 0.040, LPCD 0.072, BPCD 0.054 % wt)
[9] = 60 °C, 5.0 Hrs., 1.45 × 10^-4 moles/100g VCM (APCD 0.051, LPCD 0.091 % wt)

Row | Compound | Ten-Hour Half-Life Temperature [1] [°C] | % Purity ([2]; 0 days elapsed) [%] | A.O. ([2]; 0 days elapsed) | % Purity ([2]; 7 days elapsed) [%] | A.O. ([2]; 7 days elapsed) | % Purity ([2]; 14 days elapsed) [%] | A.O. ([2]; 14 days elapsed) | % Purity ([2]; 28 days elapsed) [%] | A.O. ([2]; 28 days elapsed) | % Purity ([2]; 59 days elapsed) [%] | A.O. ([2]; 59 days elapsed) | % Purity ([2]; 89 days elapsed) [%] | A.O. ([2]; 89 days elapsed) | Exotherm Time ([4]; Table V) [min] | Gel Time ([4]; Table V) [min] | Exotherm Time ([4]; Table VI) [min] | Gel Time ([4]; Table VI) [min] | other results
1 | CC(=O)OOC(=O)OCC1CCC(COC(=O)OOC(C)=O)CC1 (stereo not drawn) [APCD, di(acetylperoxy)-1,4-cyclohexane dimethanol bis-carbonate] | 55.2 | 99.6 | 9.15 | 99.5 | 9.14 | 98.3 | 9.03 | 97.7 | 8.98 | 95.4 | 8.77 | 93.4 | 8.58 | 4.05 | 3.38 | 4.20 | 3.58 | % Conversion ([3]; 55 °C, 1.5 Hrs., 2.23 × 10^-4 moles/100g VCM (APCD 0.0775 % wt)): 13.6%; % Conversion ([3]; 55 °C, 3.5 Hrs., 2.23 × 10^-4 moles/100g VCM (APCD 0.0775 % wt)): 42.0%; % Conversion ([3]; 55 °C, 5.5 Hrs., 0.85 × 10^-4 moles/100g VCM (APCD 0.030 % wt)): 35.7%; % Conversion ([3]; 55 °C, 5.5 Hrs., 1.15 × 10^-4 moles/100g VCM (APCD 0.040 % wt)): 45.6%; % Conversion ([3]; 55 °C, 5.5 Hrs., 1.45 × 10^-4 moles/100g VCM (APCD 0.051 % wt)): 55.7%; % Conversion ([3]; 55 °C, 5.5 Hrs., 1.72 × 10^-4 moles/100g VCM (APCD 0.060, BPCD 0.081 % wt)): 60.5%; % Conversion [3, 6]: 71.5%; % Conversion ([3]; 55 °C, 5.5 Hrs., 2.23 × 10^-4 moles/100g VCM (APCD 0.0775 % wt)): 80.3%; % Conversion [3, 7]: 83.0%; % Conversion ([3]; 60 °C, 1.5 Hrs., 1.36 × 10^-4 moles/100g VCM (APCD 0.0475 % wt)): 15.1%; % Conversion ([3]; 60 °C, 3.5 Hrs., 1.36 × 10^-4 moles/100g VCM (APCD 0.0475 % wt)): 46.9%; % Conversion ([3]; 60 °C, 5.0 Hrs., 0.85 × 10^-4 moles/100g VCM (APCD 0.030, BPCD 0.040 % wt)): 48.5%; % Conversion [3, 8]: 65.9%; % Conversion ([3]; 60 °C, 5.0 Hrs., 1.36 × 10^-4 moles/100g VCM (APCD 0.0475 % wt)): 83.1%; % Conversion [3, 9]: 86.6%
2 | CC(C)(C)C1CCC(OC(=O)OOC(=O)OC2CCC(C(C)(C)C)CC2)CC1 (stereo not drawn) [Di(4-t-butylcyclohexyl) peroxydicarbonate] | 43.0 | 97.8 | 3.92 | 96.4 | 3.86 | 96.4 | 3.86 | 95.2 | 3.82 | 93.0 | 3.73 | 93.2 | 3.74 | 3.39 | 2.46 | 3.58 | 2.74 | –
3 | CCCCCCCCCCCC(=O)OOC(=O)OCC1CCC(COC(=O)OOC(=O)CCCCCCCCCCC)CC1 (stereo not drawn) [LPCD, di(lauroylperoxy)-1,4-cyclohexane dimethanol bis-carbonate] | 51.4 | – | – | – | – | – | – | – | – | – | – | – | – | – | – | 4.96 | 4.05 | % Conversion [3, 6]: 60.9%; % Conversion [3, 7]: 72.0%; % Conversion [3, 8]: 51.4%; % Conversion [3, 9]: 65.4%
4 | CCCCCCCCCCCCCCCCCCOC(=O)OOC(C)=O [acetyl peroxystearyl carbonate] | – | 94.1 | 4.04 | 93.5 | 4.01 | 93.1 | 4.00 | 91.5 | 3.92 | 87.9 | 3.77 | 78.8 | 3.38 | 4.05 | 3.13 | – | – | –
5 | CC(C)(COC(=O)OOC(=O)OCC(C)(C)c1ccccc1)c1ccccc1 [di(2-methyl-2-phenylpropyl) peroxy dicarbonate] | – | – | – | – | – | – | – | – | – | – | – | – | – | – | – | – | – | stability at room/ambient temperature [5]: ambient temperature stability
6 | O=C(OCCOc1ccccc1)OOC(=O)OCCOc1ccccc1 [di(phenoxyethyl) peroxydicarbonate] | 42.2 | 97.4 | 4.31 | 94.4 | 4.17 | 93.3 | 4.12 | 91.1 | 4.03 | 84.7 | 3.74 | 73.1 | 3.23 | 5.62 | 5.45 | – | – | –
7 | O=C(OOC(=O)OC1CCCCCCCCCCC1)OC1CCCCCCCCCCC1 [dicyclododecyl peroxy dicarbonate] | – | – | – | – | – | – | – | – | – | – | – | – | – | – | – | – | – | stability at room/ambient temperature [5]: stability that permits storage at room temperature
